The results in this text go back to ChEMBL document CHEMBL1201862, “PubChem BioAssay data set” (2004).

Some test systems named below: 786-0; A498; A549; ACHN; HOP-62; Hs-578T; IGROV-1; MCF7; Malme-3M; NCI-H460; NCI-H522; NCI/ADR-RES; RPMI-8226; SNB-75; SR; TK-10; UACC-257; UO-31; M14; SK-OV-3.
Holding throughout (assay): growth of human tumour cells (NCI), 48 h

Each structure is given as a SMILES string.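 Method: 48-hour compound exposure of cells in 96-well plates, five concentrations, linear interpolation of endpoints. The concentration for 50% growth inhibition is given as GI50.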 Activity calls are given as the source filed them. Rule as the data show it: active = GI50 up to about 1.1 µM and inactive = higher. Some results are limits rather than exact numbers.

Regarding `Cc1cn([C@H]2[C@@H](CO)C[C@H]2O)c(=O)[nH]c1=O`, the GI50 with 786-0, in the assay on A498, in the assay with A549, in the assay with ACHN, with HOP-62 and with Hs-578T was > 100 µM (inactive) in each case. The GI50 in the assay on IGROV-1, in the assay on MCF7, with Malme-3M, with NCI-H460, in the assay on NCI-H522 and with NCI/ADR-RES was > 100 µM (inactive) each time. Also, the GI50 in the assay on RPMI-8226 was > 100 µM (inactive); in the assay with SNB-75, > 100 µM (inactive); in the assay with SR, > 100 µM (inactive); with TK-10, > 100 µM (inactive); with UACC-257, 50.4 µM (inactive); in the assay with UO-31, > 100 µM (inactive).

With `CC(=O)NC1=C(C)C(=O)c2c(nc3n2CC[C@H]3OC(C)=O)C1=O`, the GI50 was 1.95 µM (inactive) with 786-0; 16.8 µM (inactive) in the assay on A498; 8.32 µM (inactive) in the assay on A549; 2.78 µM (inactive) with ACHN; 10.8 µM (inactive) in the assay with HOP-62; 3.21 µM (inactive) in the assay with Hs-578T. The GI50 was 3.07 µM (inactive) with IGROV-1; 2.06 µM (inactive) in the assay on M14; 1.49 µM (inactive) in the assay on MCF7; 1.51 µM (inactive) with Malme-3M; 2.95 µM (inactive) with NCI-H460; 1.54 µM (inactive) in the assay with NCI-H522. Moreover, the GI50 was 2.06 µM (inactive) in the assay with NCI/ADR-RES; 1.36 µM (inactive) with RPMI-8226; 3.13 µM (inactive) with SNB-75; 0.361 µM (active) in the assay on SR; 8.13 µM (inactive) in the assay on TK-10; 1.01 µM (active) with UACC-257. The GI50 in the assay with UO-31 was 3.01 µM (inactive).

For `O=C1N(C2CCCCC2)C(=O)N1C1CCCCC1`, the GI50 was 0.362 µM (active) with 786-0; 0.16 µM (active) in the assay with A498; 0.245 µM (active) in the assay with A549; 0.0562 µM (active) in the assay on ACHN; 0.425 µM (active) in the assay with HOP-62; 0.0409 µM (active) with Hs-578T. Further, the GI50 in the assay with IGROV-1 is 17.5 µM (inactive); with M14, 1.24 µM (inactive); with MCF7, 0.723 µM (active); with Malme-3M it was 1.99 µM (inactive); with NCI-H460, 0.321 µM (active); in the assay with NCI-H522, 0.328 µM (active). Also, the GI50 in the assay with NCI/ADR-RES is 0.133 µM (active); with SK-OV-3, 5.15 µM (inactive); in the assay with SNB-75, 0.142 µM (active); in the assay with SR, 0.232 µM (active); with TK-10, 2.34 µM (inactive); in the assay with UACC-257 it was 0.679 µM (active). In addition, the GI50 in the assay on UO-31 is < 0.0105 µM (active).

Consider `CCc1[nH]c(=O)nc(N)c1-c1ccc(N2CCCCC2)c([N+](=O)[O-])c1`, for which the GI50 was > 100 µM (inactive) in the assay with 786-0; > 100 µM (inactive) in the assay with A498; > 100 µM (inactive) in the assay on A549; > 100 µM (inactive) in the assay with ACHN; > 100 µM (inactive) in the assay on HOP-62; 53.2 µM (inactive) in the assay on Hs-578T. For the same molecule, the GI50 in the assay with IGROV-1, with M14, in the assay with MCF7, in the assay on NCI-H460, with NCI-H522 and in the assay with NCI/ADR-RES was > 100 µM (inactive) throughout. The GI50 in the assay on RPMI-8226, with SK-OV-3, in the assay with SNB-75, with SR, in the assay on TK-10 and in the assay on UACC-257 was > 100 µM (inactive) throughout. In addition, the GI50 with UO-31 was > 100 µM (inactive).

`O=C(OCc1ccccc1)N(CCCCN(CCCNC(=O)C(F)(F)F)C(=O)OCc1ccccc1)CCCNC(=O)C(F)(F)F`: the GI50 in the assay on 786-0 was > 100 µM (inactive); in the assay with A498, > 100 µM (inactive); in the assay with A549 it was > 66.8 µM (inactive); with ACHN, 23.9 µM (inactive); in the assay on HOP-62, > 100 µM (inactive); with Hs-578T, > 100 µM (inactive). Also, the GI50 in the assay on IGROV-1 is > 100 µM (inactive); with M14, > 100 µM (inactive); in the assay with MCF7, > 100 µM (inactive); with NCI-H460 it was > 83.6 µM (inactive); in the assay with NCI-H522, 2.94 µM (inactive); in the assay with NCI/ADR-RES, 22.5 µM (inactive). The GI50 in the assay with RPMI-8226, in the assay on SK-OV-3, with SNB-75, in the assay on SR, in the assay with TK-10 and with UACC-257 was > 100 µM (inactive) each time. The GI50 with UO-31 was 3.56 µM (inactive).

As for `Cc1cc(S(=O)(=O)Nc2nc3cccnc3[nH]2)c(S)cc1Cl`, the GI50 in the assay with 786-0 is > 100 µM (inactive); in the assay with A498, > 100 µM (inactive); in the assay on A549 it was 75 µM (inactive); in the assay with ACHN it was > 100 µM (inactive); in the assay with HOP-62, > 100 µM (inactive); with Hs-578T, 74 µM (inactive). Further, the GI50 in the assay on IGROV-1 was > 100 µM (inactive); in the assay with M14, > 100 µM (inactive); in the assay on MCF7 it was > 100 µM (inactive); in the assay with Malme-3M it was > 100 µM (inactive); with NCI-H460 it was 73.5 µM (inactive); in the assay on NCI-H522, 70.5 µM (inactive). Moreover, the GI50 with NCI/ADR-RES, in the assay with RPMI-8226, in the assay with SK-OV-3, with SNB-75, in the assay on SR and in the assay on TK-10 was > 100 µM (inactive) throughout. Further, the GI50 with UACC-257 was > 100 µM (inactive).

As to `O=C(O/C=C\OC1CCCC1(c1ccccc1)c1ccccc1)c1ccccc1` (centres undefined), the GI50 is 4.03 µM (inactive) in the assay with 786-0; 23.1 µM (inactive) in the assay with A498; 21.4 µM (inactive) in the assay on A549; 4.1 µM (inactive) in the assay with ACHN; 18.8 µM (inactive) in the assay on HOP-62; 7.05 µM (inactive) in the assay on Hs-578T. Moreover, the GI50 in the assay on IGROV-1 is 2.6 µM (inactive); with M14, 2.79 µM (inactive); in the assay with MCF7 it was 2.6 µM (inactive); with NCI-H460, 25.9 µM (inactive); in the assay with NCI-H522, 19 µM (inactive); with NCI/ADR-RES, 2.88 µM (inactive). Further, the GI50 in the assay on RPMI-8226 is 2.61 µM (inactive); in the assay with SK-OV-3, 16.5 µM (inactive); in the assay with SNB-75 it was 3.83 µM (inactive); with SR it was 2.17 µM (inactive); with TK-10, 5.01 µM (inactive); with UACC-257, 15.8 µM (inactive). Further, the GI50 with UO-31 is 1.87 µM (inactive).

`CC(NC1=NCCO1)c1ccco1` (centres undefined): the GI50 in the assay with 786-0, in the assay on A498, in the assay with A549, in the assay with ACHN, in the assay with HOP-62 and with Hs-578T was > 100 µM (inactive) in each case. For the same molecule, the GI50 in the assay with IGROV-1, with M14, in the assay on MCF7, with Malme-3M, in the assay on NCI-H460 and with NCI-H522 was > 100 µM (inactive) throughout. For the same molecule, the GI50 in the assay with NCI/ADR-RES is > 100 µM (inactive); in the assay with RPMI-8226 it was > 100 µM (inactive); in the assay on SK-OV-3, > 100 µM (inactive); in the assay with SR, 75.9 µM (inactive); with TK-10 it was > 100 µM (inactive); in the assay with UACC-257, > 100 µM (inactive). The GI50 in the assay with UO-31 was > 100 µM (inactive).

For the molecule `O=C1c2cc(O)c(O)cc2O[C@H](c2ccc(O)c(O)c2)[C@H]1O`, the GI50 in the assay on 786-0 is > 100 µM (inactive); in the assay on A498 it was > 100 µM (inactive); in the assay on A549 it was > 100 µM (inactive); in the assay with ACHN, > 100 µM (inactive); in the assay with HOP-62 it was 80.7 µM (inactive); with Hs-578T, > 100 µM (inactive). The GI50 was > 100 µM (inactive) in the assay on IGROV-1; > 100 µM (inactive) in the assay on M14; > 100 µM (inactive) in the assay with MCF7; 49.7 µM (inactive) in the assay on NCI-H460; > 100 µM (inactive) in the assay on NCI-H522; > 100 µM (inactive) with NCI/ADR-RES. In addition, the GI50 in the assay with RPMI-8226 was > 100 µM (inactive); in the assay on SK-OV-3, > 100 µM (inactive); with SNB-75 it was > 100 µM (inactive); in the assay on SR, > 100 µM (inactive); with TK-10, > 100 µM (inactive); in the assay with UACC-257, 98.9 µM (inactive). The GI50 with UO-31 is > 100 µM (inactive).

Regarding `CC(=O)Nc1ccc(NS(=O)(=O)c2ccc3nc(C)n(NS(=O)(=O)c4ccc(NC(C)=O)cc4)c(=O)c3c2)cc1`, the GI50 in the assay with 786-0, with A498, in the assay on A549, with ACHN, with HOP-62 and in the assay on Hs-578T was > 100 µM (inactive) in each case. For the same molecule, the GI50 was > 100 µM (inactive) with IGROV-1; > 100 µM (inactive) in the assay on M14; > 100 µM (inactive) with MCF7; > 100 µM (inactive) with NCI-H460; > 60.7 µM (inactive) in the assay on NCI-H522; > 100 µM (inactive) with NCI/ADR-RES. In addition, the GI50 with RPMI-8226, in the assay with SK-OV-3, in the assay with SNB-75, with SR, in the assay with TK-10 and in the assay with UACC-257 was > 100 µM (inactive) each time. Further, the GI50 in the assay with UO-31 was > 100 µM (inactive).

For the molecule `CCOc1cc(C2CC(c3ccc(NS(=O)(=O)c4cc([N+](=O)[O-])ccc4C)cc3)=NN2)ccc1O` (centres undefined), the GI50 with 786-0 was 20.1 µM (inactive); with A498, 22.3 µM (inactive); in the assay on A549, 29 µM (inactive); in the assay with ACHN, 23.7 µM (inactive); in the assay with Hs-578T, 65 µM (inactive); with IGROV-1, 58.9 µM (inactive). The GI50 in the assay with M14 is 19 µM (inactive); with MCF7, 21.5 µM (inactive); with Malme-3M, 25 µM (inactive); in the assay with NCI-H522, 26.9 µM (inactive); with NCI/ADR-RES it was 24.2 µM (inactive); with RPMI-8226, 24.6 µM (inactive). Also, the GI50 in the assay on SNB-75 was 29.8 µM (inactive); with SR, 22.4 µM (inactive); with UO-31, 27.8 µM (inactive).
